# Experimental data as given in patent publication US6979545B2, “Method for determining chemical reactivity” (Pharmacia & Upjohn Company, priority 2000, dated 2005).
# Like-named read-outs stand apart in the source and are kept apart here.
# Assays:
# [1] = fluorescein-5-maleimide (FM)/GSH competition fluorescence test; type: physicochemical; details: for level of fluorescence, visual observation of the cuvette: compared to a standard without the compound for screening; for electrophilic properties (conclusion): from FM/GSH fluorescence
# Description: A small aliquot of fluroescein-5-maleimide (FM) in dimethyl sulfoxide (DMSO) is added to a fluorometric cuvette containing 2 ml of phosphate buffered saline at a pH of 7.40. A test compound for screening in DMSO is added to the cuvette, as is a small aliquot of GSH solution. The mixture is exposed to light at 490 nm and emission is observed through a 530 nm bandpass filter. The color of the resulting mixture is observed and the amount of fluorescence is measured.
# [2] = GSH reactivity screen (mercury orange fluorescence, 96-well); type: physicochemical; details: for potential reactivity using the GSH reactivity screen: residual GSH by HgO fluorescence, electrophile criterion e.g. <20% GSH remaining
# Description: The test compounds as listed in Table 2 to be screened are dissolved in dimethyl sulfoxide (DMSO) to a final concentration of 10 mM, and 2 μL is transferred to the wells of a polypropylene 96-well microtiter plate. […] Mercury orange (HgO) stock solution (470 μM) is prepared in acetone and stored at 4° C. […] A 48 μL aliquot of the GSH working solution is pipetted into the 96-well tray containing the test compounds to yield a final concentration of 200 μM GSH. The reaction of the test compound with the GSH is allowed to proceed for 1 h at room temperature after which time an aliquot of HgO is added to each reaction well to yield a final concentration of 50 μM GSH/HgO. […] Assay linearity is investigated by preparing a GSH standard curve in the concentration range 0 to 50 μM (final concentration). Routine sample analysis is achieved using a Biomek 2000 biorobotic system configured with six 96-well plates and 2 reagent reservoirs.
# Compounds are then identified as elelctrophiles based upon a predetermined criteria of GSH consumption (e.g., <20% GSH remaining).
# [3] = phosphate buffered saline pH 7.40, excitation 490 nm, emission 530 nm
# [4] = test compound with 200 μM GSH, 1 h at room temperature, no metabolic activation, no glutathione transferase
# [5] = test compound with 200 μM GSH, 1 h at room temperature
Compound,"result in the GSH screen (in words) [2, 4]",further results
O=C1C=CC(=O)N1c1cccc(C(F)(F)F)c1,–,"level of fluorescence, visual observation of the cuvette [1]: does not appreciably change; electrophilic properties (conclusion) [1]: not having electrophilic properties; reactivity of this compound toward GSH as compared to the FM standard [1, 3]: 2.95 times less"
CC(=O)NC1=C(Cl)C(=O)c2ccccc2C1=O,–,"level of fluorescence, visual observation of the cuvette [1]: appreciably reduced; electrophilic properties (conclusion) [1]: having electrophilic properties; reactivity of this compound toward GSH as compared to the FM standard (in words) [1, 3]: slightly greater"
O=[N+]([O-])c1ccc(Cl)cc1 [1-Chloro-4-nitrobenzene],–,result in the GSH screen (in words) [2]: non-reactive
"O=[N+]([O-])c1ccc(Cl)c([N+](=O)[O-])c1 [1-chloro-2,4-dinitrobenzene]",non-reactive,–
O=[N+]([O-])c1csc(Br)n1 [2-Bromo-4-nitrothiazole],reactive,"potential reactivity using the GSH reactivity screen [2, 5]: R"
N#Cc1ccc(Cl)cc1 [4-Chlorobenzonitrile],–,result in the GSH screen (in words) [2]: non-reactive
O=[N+]([O-])c1cc(O)ccc1Cl [4-chloro-3-nitrophenol],non-reactive,–
c1ccccc1 [Benzene],non-reactive,–
COc1ccc(O)c(C(C)(C)C)c1 [Butylated hydroxyanisole],non-reactive,–
ClC(Cl)Cl [Chloroform],–,result in the GSH screen (in words) [2]: non-reactive
Cc1ccccc1 [Toluene],non-reactive,–
C/C=C/C=O [trans Crotonaldehyde],reactive,"potential reactivity using the GSH reactivity screen [2, 5]: R"

# Now from value to compound, other results behind:
"result in the GSH screen (in words) [2, 4]",Compound,further results
non-reactive,Nc1ccc(Cl)c([N+](=O)[O-])c1 [4-chloro-3-nitroaniline],–
non-reactive,COc1ccc(Cl)c([N+](=O)[O-])c1 [4-chloro-3-nitroanisole],–
non-reactive,N#Cc1ccc(Cl)c([N+](=O)[O-])c1 [4-chloro-3-nitrobenzonitrile],–
non-reactive,Cc1cc(C(C)(C)C)c(O)c(C(C)(C)C)c1 [Butylated hydroxytoluene],–
non-reactive,O=C(O)Cc1ccccc1Nc1c(Cl)cccc1Cl [Diclofenac],–
non-reactive,O=C(CCCN1CCC(O)(c2ccc(Cl)cc2)CC1)c1ccc(F)cc1 [Haloperidol],–
reactive,O=C1C=C(c2ccccc2)C(=O)N1 [Phenylmaleimide],"potential reactivity using the GSH reactivity screen [2, 5]: R"
non-reactive,O=C1NC(=O)C(c2ccccc2)(c2ccccc2)N1 [Phenytoin],–
non-reactive,CC/C(=C(\c1ccccc1)c1ccc(OCCN(C)C)cc1)c1ccccc1 [Tamoxifen],–
non-reactive,CC(=O)Nc1ccc(O)cc1 [acetaminophen],–
